Values quoted from earlier work, collected in US20120259389A1, “TREATMENT OF POSTPRANDIAL HYPERGLYCEMIA BY GASTRIC ELECTRICAL STIMULATION” (priority 2009, published 2012).

System: ZDF rats
Details: Type II diabetic ZDF rats; 300 mg/kg/day for 28 days; reported by Uhles et al. 2009

## CN(C)C(=N)N=C(N)N [Metformin]
  reduction in mean change in blood glucose AUC: 21%
